According to US10767186B2, “Organic compounds” (Novartis AG, priority 2007, dated 2020):

Key:
[1] = molecular target: T1, reduced folate carrier (RFC) (Homo sapiens, UniProt P41440); conditions: cited from earlier work
T1 sequence (P41440 1-591): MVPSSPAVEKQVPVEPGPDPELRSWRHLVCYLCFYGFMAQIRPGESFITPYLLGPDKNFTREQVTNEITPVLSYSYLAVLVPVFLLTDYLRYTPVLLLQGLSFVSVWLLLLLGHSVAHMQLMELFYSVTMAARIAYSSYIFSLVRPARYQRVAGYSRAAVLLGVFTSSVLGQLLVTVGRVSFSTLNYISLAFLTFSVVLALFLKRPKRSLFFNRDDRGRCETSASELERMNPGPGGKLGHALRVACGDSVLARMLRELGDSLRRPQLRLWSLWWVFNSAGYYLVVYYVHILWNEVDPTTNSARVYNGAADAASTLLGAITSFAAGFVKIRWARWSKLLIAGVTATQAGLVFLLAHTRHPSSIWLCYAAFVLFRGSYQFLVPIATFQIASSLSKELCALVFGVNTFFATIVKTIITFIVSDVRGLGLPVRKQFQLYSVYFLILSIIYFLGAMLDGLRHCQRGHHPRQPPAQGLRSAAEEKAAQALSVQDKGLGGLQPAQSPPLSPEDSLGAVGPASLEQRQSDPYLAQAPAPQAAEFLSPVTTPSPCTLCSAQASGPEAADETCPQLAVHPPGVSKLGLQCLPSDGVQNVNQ

CHO-K1 cell line = experiment: Folic acid starvation experiment, cell survival; format: cell-based, Chinese hamster
Method: Cells are cultivated in such medium and cell viability is analyzed to quantify the percentage of surviving cells.

RFC-deficient C15 cells = experiment: Antibody production of test vector clones at low folic acid (ELISA); format: cell-based, Chinese hamster
Method: The cells are lacking RFC transporter activity, as disclosed elsewhere (Assaraf, Y. G. and Schimke, R. T. (1987) Proc. Natl. Acad. Sci. USA 84, 7154-7158; Rothem, L., et al., Mol. Pharmacol. 68: 616-624).
RFC-deficient C15 cells are transfected with the test vector by electroporation. […] Cells are diluted to a final density of 5 cells/ml and seeded at 100 μl/well in 96-well plates (i.e. 0.5 cells/well). […] The co-selection utilizing the folate system of the present invention together with an additional selection system (i.e. neo/G418) is applied to provide optimal performance of the selection process. […] This is corroborated by further analysis of antibody expression in the various clones.
The analysis of antibody production is performed in principle as outlined in Example 1.4 above. The concentration of the secreted antibody is monitored using an ELISA assay as follows: Maxisorp microplates are coated with an anti-human IgG. Following blocking with a buffer containing bovine serum albumin (BSA) and several washes, multiple dilutions of the secreted antibody samples are added. Then, a peroxidase-conjugated second antibody consisting of goat anti-human IgG-peroxidase is added. Finally, a colorimetric peroxidase substrate is added following which the resultant dye concentration is determined in each well spectrophotometrically and then compared to standard concentrations of known IgG concentrations.

[2] = molecular target: FRα (FR alpha) and FRβ (FR beta); conditions: cited from earlier work; for Kd: FRα and FRβ

For `Nc1nc2ncc(CNc3ccc(C(=O)N[C@@H](CCC(=O)O)C(=O)O)cc3)nc2c(=O)[nH]1` [folic acid], the “Kt (transport affinity)” value [1] is listed as 200 to 400 µM, the “Precentage of Survival” value (CHO-K1 cell line; FA concentration 0.1 nM) is listed as 2.08 and the “Precentage of Survival” value (CHO-K1 cell line; FA concentration 1 nM) is listed as 2.45. For the same compound, the “Precentage of Survival” value (CHO-K1 cell line; FA concentration 3 nM) was 2, the “Precentage of Survival” value (CHO-K1 cell line; FA concentration 10 nM) was 2.7 and the “Precentage of Survival” value (CHO-K1 cell line; FA concentration 30 nM) was 6.8. For the same compound, the “Precentage of Survival” value (CHO-K1 cell line; FA concentration 100 nM) was 55.5, the “Precentage of Survival” value (CHO-K1 cell line; FA concentration 300 nM) was 88.6 and the “Precentage of Survival” value (CHO-K1 cell line; FA concentration 1000 nM) was 100.8. The “Precentage of Survival” value (CHO-K1 cell line; FA concentration 2300 nM) was 100, the “CmAb: concentration of the secreted antibody in the medium” value (from here on “CmAb: concentration”) (RFC-deficient C15 cells; folic acid 60 pM in the medium) was 216 ± 30 µg/L and the “CmAb: concentration” value (RFC-deficient C15 cells; folic acid 600 pM in the medium) was 138 ± 15 µg/L. The “CmAb: concentration” value (RFC-deficient C15 cells; folic acid 1200 pM in the medium) was 19 ± 8 µg/L.

In the case of `Nc1nc2c(c(=O)[nH]1)CC(CCc1ccc(C(=O)N[C@@H](CCC(=O)O)C(=O)O)cc1)CN2` (some centres unmarked) [DDATHF, 5,10-dideazatetrahydrofolic acid], the Ki ([2]; using [3H]folic acid as a substrate) is given as 0.4 to 1.3 nM.

In the case of `CN(Cc1cnc2nc(N)nc(N)c2n1)c1ccc(C(=O)N[C@@H](CCC(=O)O)C(=O)O)cc1` [MTX, 4-amino-10-methylfolic acid], the Kd [2] is listed as greater than 100 nM.

For `Nc1nc2c(c(=O)[nH]1)N(C=O)C(CNc1ccc(C(=O)N[C@@H](CCC(=O)O)C(=O)O)cc1)CN2` (some centres unmarked) [leucovorin, 5-formyl-THF], the “Kt (transport affinity)” value [1] is listed as 1 µM.

In the case of `C#CCN(c1ccc(C(=O)N[C@@H](CCC(=O)N[C@H](CCC(=O)O)C(=O)O)C(=O)O)cc1)[C@H]1CCc2cc3nc(CO)[nH]c(=O)c3cc21` [BGC945], the Kd [2] is given as 1 nM.
